{"source": "patent US20260355136A1", "about": "“PROSTACYCLIN FOR TREATING PULMONARY HYPERTENSION” (Shanghai Forefront Pharma Co., Ltd., priority 2023, published 2026)", "assay_type_in_all_cases": "in vivo, male Sprague-Dawley rats", "key": {"MCT modeling rats [1]": {"system": "MCT modeling rats", "experiment": "Hemodynamic measurement of right ventricular systolic pressure (RVSP) by right cardiac catheterization in MCT-modeled rats", "procedure": "(§1) Twenty-eight 7-week-old male Sprague-Dawley rats (average weight of 200-250 g) were purchased from Vital River and were raised at the experimental site for 1 week of acclimatization (temperature 20 °C-26 °C, humidity 30%-70%, light-dark cycle ratio 1:1) until they were 8 weeks old.\n(§2) Twenty-eight rats were randomized into the following 6 groups, including dosing groups, positive control groups, a negative control group and a healthy control group, and each was marked with ear tags.\n(§3) • (1) Preparation of monocrotaline (MCT) solution: An adequate amount of MCT was weighed into a 50 mL solution of 20% ethanol-normal saline. After gentle shaking, the solution was transferred to a 50-mL centrifuge tube, and placed tilted in a thermostatic shaker at 37 °C, 220 rpm for 12-14 hours to fully dissolve until no visible crystalline particles observed. • (2) Injection of MCT solution: The skin on the dorsal cervical region of the rats was gently lifted, MCT solution was subcutaneously injected at a dose of 60 mg/kg using a 1-mL syringe and the day was recorded as Day 0. • (3) Healthy control: The same volume of normal saline was injected in the same manner. […]\n(§4) Starting from Day 14, the rats were weighed daily, and the corresponding solutions (test compound or normal saline) were administered intragastrically according to the grouping protocol until Day 27, for a total of 14 days; the intragastric dose was 0.5 mL/100 g, and the body weight and survival data of the rats were recorded. […]\n(§5) Note: Due to the limited total amount of Compound 1, rats in Group 1 were actually administered for 13 days, rats in Group 2 were actually administered for 12 days, and all were measured and sampled on Day 27; rats in Groups 3-6 were actually administered for 14 days, and all were measured and sampled on Day 27.\n(§6) Rats in Groups 3-6 were actually administered for 14 days, and all were measured and sampled on Day 27. […]"}, "MCT modeling rats [2]": {"system": "MCT modeling rats", "experiment": "Fulton index (RV/(LV+S)) measurement in MCT-modeled rats", "procedure": "The Fulton index reflects the organ remodeling caused by PAH. […] This is a goal that current pharmaceutical drugs for treating PAH cannot achieve, but one that new drugs for PAH aim to reach.\nas §1, §2, §3, §4\nAfter separating the heart, the non-ventricular parts (such as the atria, blood vessels, and valve rings) were cut off. […] RV/(LV+S) was calculated as the Fulton index. […]\nas §6"}, "[3]": {"experiment": "Body weight of MCT-modeled rats", "conditions": "intragastric; for Body weight on Day 0: Day 0 = MCT injection, before dosing; for Body weight on Day 14: Day 14 = start of dosing; for Body weight at sampling: sampled on Day 27", "procedure": "as §1, §2\n• (1) Preparation of monocrotaline (MCT) solution: An adequate amount of MCT was weighed into a 50 mL solution of 20% ethanol-normal saline. After gentle shaking, the solution was transferred to a 50-mL centrifuge tube, and placed tilted in a thermostatic shaker at 37 °C, 220 rpm for 12-14 hours to fully dissolve until no visible crystalline particles observed. • (2) Injection of MCT solution: The skin on the dorsal cervical region of the rats was gently lifted, MCT solution was subcutaneously injected at a dose of 60 mg/kg using a 1-mL syringe and the day was recorded as Day 0. • (3) Healthy control: The same volume of normal saline was injected in the same manner.\nAccording to the concentration of 0.6 mg/mL and 1.2 mg/mL (3-mg/kg/day and 6-mg/kg/day dose groups), appropriate amounts of the test compound were weighed and dissolved in corresponding volume of pure water by shaking to obtain transparent solution, respectively; • (2) The resulting solutions were stored in a 4 °C refrigerator. Remove and equilibrate to room temperature before use;\nStarting from Day 14, the rats were weighed daily, and the corresponding solutions (test compound or normal saline) were administered intragastrically according to the grouping protocol until Day 27, for a total of 14 days; the intragastric dose was 0.5 mL/100 g, and the body weight and survival data of the rats were recorded.\nas §5"}}}
{"smiles": "CCCCC[C@H](O)CC[C@@H]1[C@H]2Cc3cccc(OCC(=O)O)c3C[C@H]2C[C@H]1O", "note": "[Compound C1, Treprostinil sodium 5.5-hydrate]", "values": [{"measurement": "RVSP compared with healthy control group", "setting": "MCT modeling rats [1]; 3 and 6 mg/kg", "result": "still higher than that in the healthy control group"}, {"measurement": "RVSP reduction in rats", "setting": "MCT modeling rats [1]; 3 and 6 mg/kg", "result": "can significantly reduce RVSP in rats"}, {"measurement": "RVSP, difference between dosing groups", "setting": "MCT modeling rats [1]; 6 vs 3 mg/kg", "result": "no significant difference in the effects between the two dosing groups"}, {"measurement": "Fulton index compared with healthy control group", "setting": "MCT modeling rats [2]; 3 and 6 mg/kg", "result": "still higher than that of the healthy control group"}, {"measurement": "Fulton index reduction of rat heart", "setting": "MCT modeling rats [2]; 3 and 6 mg/kg", "result": "can significantly reduce the Fulton index of rat heart"}, {"measurement": "Fulton index, difference between dosing groups", "setting": "MCT modeling rats [2]; 6 vs 3 mg/kg", "result": "no significant difference in the effects between the two dosing groups"}, {"measurement": "Body weight on Day 0", "setting": "[3]; 3 mg/kg/day group", "result": "330 + 25.11 g"}, {"measurement": "Body weight on Day 14", "setting": "[3]; 3 mg/kg/day group", "result": "430 + 34.15 g"}, {"measurement": "Body weight at sampling", "setting": "[3]; 3 mg/kg/day", "result": "431 + 58.03 g"}, {"measurement": "Body weight on Day 0", "setting": "[3]; 6 mg/kg/day group", "result": "316 + 4.35 g"}, {"measurement": "Body weight on Day 14", "setting": "[3]; 6 mg/kg/day group", "result": "413 + 15.81 g"}, {"measurement": "Body weight at sampling", "setting": "[3]; 6 mg/kg/day", "result": "436 + 9.65 g"}]}
